The source of these data is US10328075B2, “Method of treatment and compounds for use therein” (Baker Heart and Diabetes Institute, priority 2015, dated 2019).

For one series, the target named is T1, hFPR2 (Homo sapiens, UniProt P25090).
T1 construct: expressed in transfected cells
T1 sequence (P25090 1-351): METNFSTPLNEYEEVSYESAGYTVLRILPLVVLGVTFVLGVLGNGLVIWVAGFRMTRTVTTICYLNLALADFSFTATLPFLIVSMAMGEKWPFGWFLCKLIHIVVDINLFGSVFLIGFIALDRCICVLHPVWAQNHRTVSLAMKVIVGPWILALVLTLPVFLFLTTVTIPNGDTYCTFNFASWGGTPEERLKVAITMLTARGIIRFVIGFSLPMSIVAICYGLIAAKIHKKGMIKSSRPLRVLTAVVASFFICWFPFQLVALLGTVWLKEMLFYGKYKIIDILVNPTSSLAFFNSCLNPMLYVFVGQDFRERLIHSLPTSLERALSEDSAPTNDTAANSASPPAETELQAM
Put plainly: ERK1/2 phosphorylation (AlphaScreen SureFire) in hFPR2-FlpIn-CHO cells. Type of series: cell-based. The text has this:
(§1) cDNDA construct and generation of stable cell lines: cDNA in pcDNA3.1^+ encoding the human formyl peptide receptors (FPR) subtypes, hFPR1, hFPR2 and hFPR3 was obtained from Invitrogen. The sequences for 3 hFPR receptors were amplified by PCR and cloned into the Gateway entry vector, pDONR202™, using the BP clonase enzyme mix, according to the manufactures' instructions (Invitrogen Inc, Carlsbad, Calif., USA). All hFPR receptors constructs in pDONR201™ were subsequently transfected into the pEF5/FRT/V5/dest vector using the LR clonase enzyme mix (Invitrogen). Receptor constructs (pEF5/FRT/V5/dest) were used to transfect FIp-In CHO cells as described previously (Valant C et al., PNAS, 2014). Cells were selected using 500 μg/mL hydromycin to generate cell lines stably expressing each receptor construct. Cells were maintained and cultured in high glucose DMEM supplemented with 10% FBS, 16 mM HEPES and 500 μg/mL hydromycin at 37° C. under a humidified atmosphere containing 5% CO2.
(§2) In the various assays described below, cells were plated into 96-well transparent cell culture plates at 4×10^4 cells per well, cultured overnight in serum-free media at 37° C. in 5% CO2.
(§3) Measurement of extracellular signal regulated kinase 1 and 2 phosphorylation (pERK1/2): Initial ERK1/2 phosphorylation at Thr202/Tyr204 time-course experiments were performed to determine the time at which ERK1/2 phosphorylation was maximal after stimulation by each agonist. Cells were seeded onto transparent 96-well cell culture plates at 4×10^4 cells per well. After 6 h, cells were washed once with PBS, and then incubated in serum-free DMEM overnight, to allow FBS-stimulated phosphorylated ERK1/2 levels to subside. […] 10% (v/v) FBS was used as a positive control, with vehicle controls also included. The reaction was terminated by removal of study drugs and lysis of cells with 100 μL of SureFire lysis buffer (TGR Biosciences). Cell were lysed in SureFire lysis buffer and transferred to 384-well opaque proxiplates. Under low-light conditions, a 1:120 (v:v) dilution of AlphaScreen beads (both acceptor and donor):Surefire reaction buffer was prepared, which was mixed with the activation buffer in a ratio of 6:1 (v:v), respectively. Plates were incubated in the dark at 37° C. for 1 h before the fluorescence signal was measured by a Fusion-α plate reader (PerkinElmer Life and Analytical Sciences, Foster city, CA, USA) with standard AlphaScreen settings. Data were normalized to the maximal response elicited by 10% (v/v) FBS at the same time point.
(§4) Receptor mediated pERK1/2 levels were determined using the AlphaScreen™ ERK1/2 SureFire™ kit, as described previously (Keov, P et al., 2014). For all experiments, 10% FBS was used as internal positive control to stimulate pERK1/2, and which the maximum responses were used for normalization of data, whilst vehicle was used as negative control.
(§5) Data analysis: All data were analysed using GraphPad Prism 6.0 (GraphPad Software, San Deigo, Calif., USA). Where appropriate, concentration-response curves were fitted to derive the maximal agonist effect (Emax), and the ligand potency estimate (pEC50), where Emax is the maximal possible response of the system (not the agonist), basal is the basal level of response in the absence of agonist, and pEC50 is the negative logarithm of the agonist concentration that gives a response halfway between Emax and basal.
(§6) In the present study, FIp-IN CHO cells and Gateway plasmid were obtained from Invitrogen Inc (Carlsbad, Calif., USA). The sequences for all 3 known human FPRs (hFPR1, hFPR2 and hFPR3) were amplified by PCR and cloned into the Gateway entry vector, pDONR202TM, using the BP clonase enzyme mix, according to the manufacturers' instructions. The hFPR pDONR201TM constructs were subsequently transfected into the pEF5/FRT/V5/dest vector using the LR clonase enzyme mix (Invitrogen).
Background: Alpha assays give light when donor and acceptor beads are brought close together.

The next series has as its target T2, hFPR3 (Homo sapiens, UniProt P25089).
T2 construct: expressed in transfected cells
T2 sequence (P25089 1-353): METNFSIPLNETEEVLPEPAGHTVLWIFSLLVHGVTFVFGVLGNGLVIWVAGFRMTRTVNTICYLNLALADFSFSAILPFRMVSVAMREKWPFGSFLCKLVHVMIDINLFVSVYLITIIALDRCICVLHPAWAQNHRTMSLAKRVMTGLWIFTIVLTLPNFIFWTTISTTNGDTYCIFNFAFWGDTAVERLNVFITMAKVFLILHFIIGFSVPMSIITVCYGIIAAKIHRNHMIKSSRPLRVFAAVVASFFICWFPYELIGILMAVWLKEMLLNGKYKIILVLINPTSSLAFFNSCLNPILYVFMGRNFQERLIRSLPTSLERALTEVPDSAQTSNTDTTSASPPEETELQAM
Put plainly: Agonist responses (ERK1/2 phosphorylation) in hFPR3-CHO cells. Type of series: cell-based.
Source text: as §1, with “Cells were maintained and cultured in high glucose DMEM supplemented with 10% FBS, 16 mM HEPES and 500 μg/mL hydromycin at 37° C. under a humidified atmosphere containing 5% CO2.” left out
Measurement of extracellular signal regulated kinase 1 and 2 phosphorylation (pERK1/2): Initial ERK1/2 phosphorylation at Thr202/Tyr204 time-course experiments were performed to determine the time at which ERK1/2 phosphorylation was maximal after stimulation by each agonist. […] Plates were incubated in the dark at 37° C. for 1 h before the fluorescence signal was measured by a Fusion-α plate reader (PerkinElmer Life and Analytical Sciences, Foster city, CA, USA) with standard AlphaScreen settings. […]

The target in series [1] is T3, hFPR1 (Homo sapiens, UniProt P21462).
T3 construct: expressed in transfected cells
T3 sequence (P21462 1-350): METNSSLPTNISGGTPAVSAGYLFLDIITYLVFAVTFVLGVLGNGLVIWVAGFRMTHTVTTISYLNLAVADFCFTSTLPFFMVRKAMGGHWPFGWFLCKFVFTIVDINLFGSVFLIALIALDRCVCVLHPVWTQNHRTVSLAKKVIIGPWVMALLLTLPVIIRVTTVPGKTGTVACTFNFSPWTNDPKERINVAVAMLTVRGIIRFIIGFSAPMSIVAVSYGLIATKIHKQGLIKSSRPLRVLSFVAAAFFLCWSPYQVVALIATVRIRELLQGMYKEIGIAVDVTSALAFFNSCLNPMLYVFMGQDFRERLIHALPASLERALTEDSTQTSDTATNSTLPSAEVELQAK
The experiment in a line: ERK1/2 phosphorylation (AlphaScreen SureFire) in hFPR1-FlpIn-CHO cells. Type of series: cell-based.
Source text: as §1, §2, §3, §4, §5, §6

Series [2] in a line: Plasma levels and pharmacokinetics in mice. Type of series: in vivo, mouse. Particulars: mouse, in vivo; Table 9; mice.
Series [3] has as its target T3, hFPR1. The experiment in a line: Quantification of biased agonism (operational model) at hFPR1 in CHO cells. Type of series: cell-based. The conditions noted are these: Table 9.
Source text: To quantify biased agonism mediated by each agonist across the various pathways ([Ca^2+], mobilization, pERK1/2, Akt1/2/3 and inhibition of cAMP accumulation), agonist concentration-response curves were refitted using the operation model normalized to the transduction ratio of a reference agonist (in this case, BIDI-002) as described previously (Stewart G D et al., 2009). Under these conditions, if the test agonist and the reference agonist activate the two pathways through a common receptor conformation, the log [bias factor] should be 0.0 (or bias factor different from 1.0), irrespective of differences in response amplification between pathways. In contrast, significant deviation of log [bias factor] from 0.0 (or bias factor different from 1.0) indicates the involvement of distinct conformations for the different agonists. All affinities, potencies, efficacies, and cooperativity parameters were estimated as logarithms (Christopoulos, 1998). Results are expressed as means±S.E. unless otherwise stated. Statistical analyses were by Student's t test, or one-way ANOVA followed by Dunnett's Comparison or Tukey's post-hoc test, as appropriate. Values of p<0.05 were considered statistically significant.
A “transduction ratio” is firstly derived for each response (τ/KA, where τ represents efficacy, and KA affinity, of the agonist for each GPCR conformational state), extracted from each concentration-response curve. “Bias factors” (ΔΔ(τ/KA)) were then calculated by normalizing the transduction ratio to a reference ligand (in this case, Cmpd43) and reference pathway, which here was Akt1/2/3(Thr308) phosphorylation. Lastly, bias factors were plotted on a ‘web of bias’ to visualize the potential for biased agonism. […] Under these conditions, if the test agonist and the reference agonist activate the two pathways through a common receptor conformation, the log [bias factor] should be 0.0 (i.e. the bias factor 1.0), irrespective of differences in response amplification between pathways. In contrast, significant deviation of log [bias factor] away from 0.0 (i.e. where the bias factor is different to 1.0) indicates the involvement of distinct conformations for the different agonists. All affinities, potencies, efficacies, and cooperativity parameters were estimated as logarithms (Kenakin et al. 2012).
Five signaling pathways were examined, namely pERK1/2-phosphorylation, Akt1/2/3(Ser473)-phosphorylation, Akt1(Thr308)-phosphorylation, increases in Ca2+i and inhibition of forskolin-induced cAMP accumulation. An operational model of agonism was fitted to each concentration-response curve to estimate a transduction ratio (τ/KA) for each agonist, at each pathway assessed, as described (FIG. 21B) (Kenakin et al. 2012). Transduction ratios were normalized to a reference agonist (Cmpd43) and a reference pathway (Akt1/2/3(Thr308)-phosphorylation), generating bias factors and therefore allowing quantitative cross-pathway comparison for each agonist.
Series [4] has as its target T3, hFPR1. The experiment in a line: [Ca2+]i mobilization in FlpIn-CHO cells stably expressing hFPR1. Type of series: cell-based. More on the design: Calcium Rmax: unit not given here.
Source text: as §1, §2
Intracellular calcium mobilization: Intracellular calcium mobilization was assayed as described previously (Keov, P et al., 2014). Briefly, cells were washed once using HEPES buffered saline (HBS) solution [150 mM NaCl, 2.2 mM CaCl2, 2.6 mM KCl, 1.2 mM MgCl2, 10 mM HEPEs, 10 mM D-Glucose, 0.5% (w/v) bovine serum albumin (BSA) and 4 mM probenecid] at pH 7.4, then treated with Fluo-4-AM (1 μM, in HBS/BSA/probenecid) for 60 min at 37° C. in 5% CO2 in the dark. Cells were then further washed and placed in HBS/BSA/probenecid solution for ligation addition and assay using the FLEXstation 3 plate reader (Molecular Devices, Sunnyvale, Calif.). For all experiments, peak change in fluorescence signal was normalized to the cellular response to 100 μM ATP, which was used as an internal positive control.
as §5
In the present study, FIp-IN CHO cells and Gateway plasmid were obtained from Invitrogen Inc (Carlsbad, Calif., USA). The sequences for all 3 known human FPRs (hFPR1, hFPR2 and hFPR3) were amplified by PCR and cloned into the Gateway entry vector, pDONR202TM, using the BP clonase enzyme mix, according to the manufacturers' instructions. The hFPR pDONR201TM constructs were subsequently transfected into the pEF5/FRT/V5/dest vector using the LR clonase enzyme mix (Invitrogen). Receptor constructs (pEF5/FRT/V5/dest) were used to transfect FIp-IN CHO cells, as described previously (Valant et al. 2014). Cells were selected using 500 μg/mL hydromycin to generate cell lines stably expressing each human receptor construct. Cells were maintained and cultured in high glucose Dulbecco's modified eagle medium (DMEM) supplemented with 10% fetal bovine serum (FBS, from JRH Biosciences, Lenexa, Kans., USA) and 500 μg/mL hydromycin B (Invitrogen Inc) at 37° C. under a humidified atmosphere containing 5% CO2. Cell were plated into 96-well transparent cell culture plates at 4×10^4 cells per well, cultured overnight in serum-free media at 37° C. in 5% CO2.
(ii) Intracellular Ca2+ mobilization: Intracellular Ca2+ mobilization was determined in stably-transfected recombinant hFPR CHO cells, as described previously (Valant et al. 2014).

Entries after “also recorded” stand apart in the source; their conditions may differ.

`CCCCC[C@H](O)/C=C/C=C\C=C\C=C\[C@@H](O)[C@@H](O)CCCC(=O)O` [LxA4, lipoxin-A4]: the “ERK-phosphorylation at hFPR2 (in words)” value at hFPR2 is on record as “failed to stimulate; also recorded: without effect”. On hFPR3, the “Agonist response (ERK-phosphorylation) in hFPR3-CHO cells” value is listed as “failed to stimulate; also recorded: without effect”. Besides, the “ERK-phosphorylation at hFPR1 (in words)” value at hFPR1 [1] is listed as “failed to stimulate; also recorded: without effect”.
Consider `COc1cccc(Cc2cc(C)nn(Cc3ccc(Cl)cc3)c2=O)c1OC` [MIPS-0010394], for which the Tmax in series [2] is 18 min. This compound also showed a half-life in series [2] of 570 min. The EC50 on hFPR1 [1] (Table 9, read-out: potency (pEC50) pERK1/2, hFPR1-FlpInCHO cells in vitro (converted)) is 170 nM; on hFPR1 [1] (Table 10, receptor not given, values of 10394/10396 equal the hFPR1 values of Table 9, read-out: ERK pEC50 (converted)), 170 nM; on hFPR1 [4] (Table 9, read-out: potency (pEC50) Ca^2+i, hFPR1-FlpInCHO cells in vitro (converted)), 407 nM; on hFPR1 [4] (Table 10, receptor not given, ND = Not detectable, read-out: Calcium pEC50 (converted)), 407 nM. Also, the “ERK Rmax” value at hFPR1 [1] (Table 10, receptor not given) is recorded as 82 ± 5. The “Bias (away from Ca2+i), hFPR1-FlpInCHO cells in vitro” value at hFPR1 [3] was “Slight”. Also, at hFPR1 [4] (Table 10, receptor not given, ND = Not detectable), the “Calcium Rmax” value amounted to 38 ± 2.

One may read the Tmax as the time from dosing to the highest level. A word on the half-life: it is the time needed for the level to fall by half in the phase considered.
